Legend:
[1] = system: surgical infarct model of CHF; assay: Transthoracic echocardiography in surgical infarct (LAD ligation) model of CHF; assay type: in vivo, rat; settings: for fractional shortening (FS): 4 weeks after surgery, captopril 100 mg/kg/day or prazosin 2 mg/kg/day, mean±SEM
Description: Adult male Sprague-Dawley rats (Harlan, Indianapolis, Ind.) weighing 400-450 grams were put under general anesthesia by intraperitoneal injection with a mixture (3:3:2) of ketamine (100 mg/mL), xylazine (20 mg/mL), and acepromazine (10 mg/mL). After intubation, the rats were ventilated continuously (room air) using a small animal ventilator (model 683, Harvard Apparatus, Holliston, Mass.). A left lateral thoracotomy incision was made along the 5th intercostal space. After the pericardium was opened, the heart was exteriorized using a retention suture placed at the apex. The left anterior descending coronary artery (LAD) was ligated twice using 6-0 prolene suture (Ethicon, Piscataway, N.J.). After chest closure with running 3-0 vicryl suture (Ethicon), rats were placed in a recovery chamber with a heating pad and a warming light.
Beginning on post-operative day one, rats were allowed to drink ad libitum. One group was fed water with captopril (2 g/L), and another group was fed water alone (Pfeffer et al., Circ. Res., 57:84-95 (1985)). The rats were fed a standard diet of Teklad rodent feed (Harlan) ad libitum and kept on a 12:12 hour light-dark cycle. In both the captopril- and the placebo-treated group, the rats were sacrificed at designated time intervals of 2 weeks and then 4, 6, and 8 weeks after surgery. On average, the rats drank approximately 20 mL of water daily, which corresponded to a dose of 100 mg/kg/day of captopril.
All rats in the placebo- and captopril-treated groups underwent transthoracic echocardiography (Acuson Sequoia C256® Echocardiography System, Siemens Medical Solutions USA, Inc., Malvern, Pa.) at baseline prior to LAD ligation and at 2, 4, 6, and 8 weeks after LAD ligation using 2-D digital loop imaging under conscious sedation with vaporized isoflurane as described previously (Karim et al., Circ. Res., 95:612-18 (2004); Morgan et al., Am. J. Physiol. Heart Circ. Physiol., 287:H2049-H2053 (2004)). […] Both parasternal long and short axis views were obtained using a 13-MHz linear array transducer. Digital calipers were used to measure end systolic dimension (ESD) and end diastolic dimension (EDD). Cardiac function was estimated using fractional shortening (FS) obtained from the EDD and ESD in the parasternal long axis view and calculated as FS=((EDD−ESD)/EDD)×100%.
The echocardiographic data were reported as mean±SEM.

LZ+ MYPT1 isoform = assay: Western blot of relative LZ+ MYPT1 isoform expression in vascular smooth muscle after LAD ligation; assay type: in vivo, rat; settings: for LZ+ MYPT1 isoform expression in aorta (in words) / LZ+ MYPT1 isoform expression in iliac artery (in words): captopril 2-8 weeks, prazosin 4 weeks

C[C@H](CS)C(=O)N1CCC[C@H]1C(=O)O [captopril]
effect on fractional shortening / left ventricular function (LVF) ([1]; infarct rats versus placebo, captopril as early as 2 weeks post-infarction, prazosin at 4 weeks): attenuated the fall in FS and improved left ventricular function | fractional shortening (FS) ([1]; infarct rats): 45±1% | end systolic dimension (ESD) compared to placebo ([1]; infarct rats, all time-points (2, 4, 6, 8 weeks), P<0.05): reduced the ESD | LZ+ MYPT1 isoform expression in aorta (in words) (LZ+ MYPT1 isoform; infarct rats, aorta): preserved at the uninfarcted control level | LZ+ MYPT1 isoform expression in iliac artery (in words) (LZ+ MYPT1 isoform; infarct rats, iliac artery): preserved at the level of the uninfarcted control smooth muscle | LZ+ MYPT1 isoform expression in portal vein (in words) (LZ+ MYPT1 isoform; infarct rats, portal vein, all time intervals): remained low

COc1cc2nc(N3CCN(C(=O)c4ccco4)CC3)nc(N)c2cc1OC [prazosin]
fractional shortening (FS) ([1]; infarct rats): 38±2% | LZ+ MYPT1 isoform expression in the aorta (fall versus uninfarcted control) (LZ+ MYPT1 isoform; aorta, 4 weeks after infarction, placebo 44±1%, P<0.05): 68±1% | LZ+ MYPT1 isoform expression in the iliac artery (fall versus uninfarcted control) (LZ+ MYPT1 isoform; iliac artery, 4 weeks after infarction, placebo 52±2%, P=0.87): 54±2% | LZ+ MYPT1 isoform expression in aorta (in words) (LZ+ MYPT1 isoform; infarct rats, aorta): did not prevent the fall | LZ+ MYPT1 isoform expression in iliac artery (in words) (LZ+ MYPT1 isoform; infarct rats, iliac artery): did not prevent the fall

Reference: patent US9012454B2, “Sexual dysfunction” (Mayo Foundation for Medical Education and Research, priority 2005, dated 2015)
